Like-named read-outs stand apart in the source and are kept apart here.
Experiments:
human A2B receptor [1] = target: T1, human A2B receptor (Homo sapiens (Human), UniProt P29275); test: Radioligand binding competition assay, [3H]-DPCPX, membranes from HEK293 cells transfected with human A2B receptor
Method: (§1) For all four adenosine receptors (A1, A2A, A2B and A3) filtration binding assay was performed. Radioligand binding competition assay was done in duplicates in the wells of a 96-well plate (Master Block, Greiner, 786201) containing binding buffer, receptor membrane extracts, a fixed concentration of tracer and test compound at increasing concentrations. In order to eliminate effect of buffer components, binding buffer was the same for all four receptors and contained: 50 mM Tris-HCl pH 7.4, 5 mM MgCl2, 1 mM EDTA, 150 mM NaCl, 0.1% Na-azide, and 5 U/ml adenosine-deaminase. Nonspecific binding was determined by co-incubation with 200-fold excess of cold competitor. In all radioligand binding experiments, the samples were incubated in a final volume of 0.1 ml for 60 minutes at 25° C. and then filtered over Unifilter plates (Perkin Elmer) pre-treated for 2 hours to limit tracer non-specific binding. Filters were washed five times with 0.5 ml of ice-cold washing buffer (50 mM Tris-HCl pH 7.4, 5 mM MgCl2, 1 mM EDTA) and 50 μl of Microscint 20 (Perkin Elmer) were added to each filter. The plates are incubated 15 min at room temperature on an orbital shaker and then counted with a TopCount™ for 1 min/well.
For A2B, the assay was carried with [^3H]-DPCPX and membranes prepared from HEK293 cells transfected with human A2B receptor (Euroscreen FAST-003B).

human A2A receptor = human A2A receptor (Homo sapiens (Human), UniProt P29274); test: Radioligand binding competition assay, [3H]-NECA, membranes from HEK293 cells transfected with human A2A receptor; conditions: radioligand binding
human A2A receptor, sequence (P29274 whole entry): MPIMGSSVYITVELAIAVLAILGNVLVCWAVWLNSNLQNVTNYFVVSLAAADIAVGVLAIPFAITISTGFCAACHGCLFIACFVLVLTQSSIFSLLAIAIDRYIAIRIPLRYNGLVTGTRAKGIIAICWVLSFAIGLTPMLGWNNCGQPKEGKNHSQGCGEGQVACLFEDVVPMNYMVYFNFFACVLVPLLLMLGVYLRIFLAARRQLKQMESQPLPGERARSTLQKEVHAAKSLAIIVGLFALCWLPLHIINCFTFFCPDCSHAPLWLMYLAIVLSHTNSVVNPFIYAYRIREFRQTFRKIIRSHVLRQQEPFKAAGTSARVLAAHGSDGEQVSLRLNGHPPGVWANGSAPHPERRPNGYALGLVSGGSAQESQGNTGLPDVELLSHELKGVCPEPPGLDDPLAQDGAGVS
Method: as §1
For A2A receptor the assay was performed with [^3H]-NECA and membranes from HEK293 cells transfected with human A2A receptor (Euroscreen FAST-002B).

[2] = target: A2B receptors endogenously expressed in HEK293 cells (Homo sapiens (Human), UniProt P29275); test: cAMP assay (a), HEK293 cells with A2B receptors endogenously expressed; format: cell-based; conditions: stimulated with 5 μM NECA
A2B receptors endogenously expressed in HEK293 cells, sequence (P29275 whole entry): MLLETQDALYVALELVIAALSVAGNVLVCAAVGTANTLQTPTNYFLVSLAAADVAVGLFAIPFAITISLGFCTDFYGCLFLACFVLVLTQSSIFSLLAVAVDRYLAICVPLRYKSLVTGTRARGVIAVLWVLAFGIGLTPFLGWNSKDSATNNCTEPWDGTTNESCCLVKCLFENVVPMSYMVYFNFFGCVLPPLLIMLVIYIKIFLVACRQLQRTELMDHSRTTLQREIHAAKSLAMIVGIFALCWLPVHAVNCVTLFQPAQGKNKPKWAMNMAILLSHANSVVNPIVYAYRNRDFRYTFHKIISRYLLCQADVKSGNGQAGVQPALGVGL
Method: (§2) Two assays have been employed, one using HEK293 with A2B receptors endogenously expressed (named cAMP assay (a) in the following) and a second one using HEK293 cells impressing recombinant human A2B receptors (named cAMP assay (b) in the following)
Real-time cAMP-assays in live cells were performed in HEK293 cells stably expressing the EPAC-sensor (I. Vedel, et al., 2015, J. Biomol. Screen. 20, 849-857).
In order to test for cAMP inhibition by preferred compounds of formula I and antagonists, respectively, from this invention, endogenous A2A and A2B expression in above cell lines was exploited. To run the assay, cells were incubated in 80 μl assay buffer for 15 minutes at room temperature. The assay buffer was composed of Hanks Balanced Salt Solution (Gibco) with 20 mM HEPES, pH 7.4 and […] adenosine-deaminase. All cAMP assays were run at room temperature using a PHERAstar FSX plate reader. The FRET donor (mCerulean) was excited at 430 nm. Fluorescence emission was measured at 480 nm and 530 nm for 65 minutes (cycle time 1.45 min). Prior to stimulation fluorescence was measured for 10 min (baseline). Subsequently cells were stimulated with 5 μM NECA (5′-(N-Ethylcarboxamido)adenosine; Tocris, Cat.-No:35920-39-9). Sharply 10.15 min after stimulation the compounds were added at increasing concentrations (between 0 and 200 μM) and fluorescence was recorded for 40 min. Each compound concentration was measured in duplicates.

human A2B receptor [3] = target: T1, human A2B receptor; test: cAMP assay (b), HEK293 cells expressing recombinant human A2B receptor; format: cell-based; conditions: reference agonist at EC80, read-out: cAMP pIC50 (converted)
Method: as §2
Dose response curves were performed in parallel with the reference compounds. 12 μl of cells were mixed with 6 μl of the test compound at increasing concentrations and then incubated 10 min. Thereafter 6 μl of the reference agonist was added at a final concentration corresponding to the historical EC80. The plates were then incubated for 30 min at room temperature. After addition of the lysis buffer and 1 hour incubation, cAMP concentrations were estimated, according to the manufacturer specification, with the HTRF kit.

human A1 receptor = human A1 receptor (Homo sapiens (Human), UniProt P30542); test: Radioligand binding competition assay, [3H]-DPCPX, membranes from CHO-K1 cells transfected with human A1 receptor
human A1 receptor, sequence (P30542 whole entry): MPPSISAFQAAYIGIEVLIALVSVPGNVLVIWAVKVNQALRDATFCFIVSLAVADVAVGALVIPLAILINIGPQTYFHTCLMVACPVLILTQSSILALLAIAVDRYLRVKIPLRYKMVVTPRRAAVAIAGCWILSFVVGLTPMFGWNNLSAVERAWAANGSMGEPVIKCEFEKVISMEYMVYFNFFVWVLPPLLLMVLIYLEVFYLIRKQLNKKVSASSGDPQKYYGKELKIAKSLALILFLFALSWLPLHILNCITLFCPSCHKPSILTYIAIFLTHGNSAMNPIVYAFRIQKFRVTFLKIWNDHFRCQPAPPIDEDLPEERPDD
Method: as §1
For A1 receptor the assay was performed with [^3H]-DPCPX and membranes from CHO-K1 cells transfected with human A1 receptor (Euroscreen FAST-00B).

[4] = read-out: cAMP pIC50 (converted)

T1 sequence (P29275 whole entry): as the sequence (P29275 whole entry) above

Compound: O=C(Nc1nnc(-c2ccncc2F)c(-c2ccccc2F)n1)NC1CC1 [Example 35, 1-cyclopropyl-3-[5-(2-fluorophenyl)-6-(3-fluoro-4-pyridyl)-1,2,4-triazin-3-yl]urea]
- Human A2B Receptor pKi (human A2B receptor [1]): 6.55

Compound: Fc1cccc(Nc2nnc(-c3ccncc3F)c(-c3ccccc3F)n2)c1 [Example 12, 5-(2-fluorophenyl)-N-(3-fluorophenyl)-6-(3-fluoropyridin-4-yl)-1,2,4-triazin-3-amine]
- Human A2B Receptor pKi (human A2B receptor [1]): 6.42
- IC50 (human A2B receptor [1]): 420 nM
- Human A2A Receptor pKi (human A2A receptor): 4.49
- IC50 (human A2A receptor): 32600 nM

Compound: CC(O)c1ccc(Nc2nnc(-c3ccncc3F)c(-c3ccccc3F)n2)cn1 (centres unmarked) [Example 40, 1-(5-{[5-(2-fluorophenyl)-6-(3-fluoropyridin-4-yl)-1,2,4-triazin-3-yl]amino}pyridin-2-yl)ethan-1-ol]
- Human A2B Receptor pKi (human A2B receptor [1]): 7.89
- Human A2A Receptor pKi (human A2A receptor): 6.25

Compound: Cc1nnc(Nc2nnc(-c3ccncc3F)c(-c3cccnc3)n2)s1 [Example 6, N-(6-(3-fluoropyridin-4-yl)-5-(pyridin-3-yl)-1,2,4-triazin-3-yl)-5-methyl-1,3,4-thiadiazol-2-amine]
- Human A2B Receptor pKi (human A2B receptor [1]): 5.37
- IC50 (human A2B receptor [1]): 4770 nM
- Human A2A Receptor pKi (human A2A receptor): <4.70
- IC50 [2]: 3980 nM
- IC50 [2, 4]: 3980 nM

Compound: Cc1cnc(-c2nc(Nc3cccc(F)c3)nnc2-c2ccncc2F)o1 [Example 17, N-(3-fluorophenyl)-6-(3-fluoropyridin-4-yl)-5-(5-methyloxazol-2-yl)-1,2,4-triazin-3-amine]
- Human A2B Receptor pKi (human A2B receptor [1]): 7.17
- Human A2A Receptor pKi (human A2A receptor): 5.8
- IC50 (human A2B receptor [3]): 324 nM

Compound: Cc1nsc(Nc2nnc(-c3ccncc3F)c(-c3cccnc3)n2)n1 [Example 5, N-(6-(3-fluoropyridin-4-yl)-5-(pyridin-3-yl)-1,2,4-triazin-3-yl)-3-methyl-1,2,4-thiadiazol-5-amine]
- Human A2B Receptor pKi (human A2B receptor [1]): 5.38
- IC50 (human A2B receptor [1]): 4660 nM
- Human A2A Receptor pKi (human A2A receptor): <4.70

Compound: CC(C)(C)c1n[nH]c(Nc2nnc(-c3ccncc3F)c(-c3ccccc3F)n2)n1 [Example 46, N-(3-tert-butyl-1H-1,2,4-triazol-5-yl)-5-(2-fluorophenyl)-6-(3-fluoropyridin-4-yl)-1,2,4-triazin-3-amine]
- Human A2B Receptor pKi (human A2B receptor [1]): 7.01

Compound: COc1ccc(Nc2nnc(-c3ccncc3F)c(-c3ccccc3F)n2)cn1 [Example 23, 5-(2-fluorophenyl)-6-(3-fluoro-4-pyridyl)-N-(6-methoxy-3-pyridyl)-1,2,4-triazin-3-amine]
- Human A2B Receptor pKi (human A2B receptor [1]): 7.43
- Human A2A Receptor pKi (human A2A receptor): 6.57
- IC50 (human A2B receptor [3]): 105 nM

Compound: OCc1ccc(Nc2nnc(-c3ccncc3F)c(-c3ccccc3F)n2)cn1 [Example 22, [5-[[5-(2-fluorophenyl)-6-(3-fluoro-4-pyridyl)-1,2,4-triazin-3-yl]amino]-2-pyridyl]methanol]
- Human A2B Receptor pKi (human A2B receptor [1]): 7.95
- Human A2A Receptor pKi (human A2A receptor): 4.7
- IC50 (human A2B receptor [3]): 29.5 nM

Compound: Fc1cnccc1-c1nnc(Nc2ccc(C(F)(F)F)nc2)nc1-c1ccccc1F [Example 24, 5-(2-fluorophenyl)-6-(3-fluoro-4-pyridyl)-N-[6-(trifluoromethyl)-3-pyridyl]-1,2,4-triazin-3-amine]
- Human A2B Receptor pKi (human A2B receptor [1]): 7.33
- Human A1 Receptor pKi (human A1 receptor): 5.58
- IC50 (human A2B receptor [3]): 107 nM

Compound: Fc1cnccc1-c1nnc(Nc2ccc(OCC(F)F)nc2)nc1-c1ccccc1F [Example 36, N-[6-(2,2-difluoroethoxy)pyridin-3-yl]-5-(2-fluorophenyl)-6-(3-fluoropyridin-4-yl)-1,2,4-triazin-3-amine]
- Human A2B Receptor pKi (human A2B receptor [1]): 7.42
- Human A2A Receptor pKi (human A2A receptor): 6.56

Compound: Fc1cnccc1-c1nnc(Nc2ccc(C3CC3)nc2)nc1-c1ccccc1F [Example 44, N-(6-cyclopropylpyridin-3-yl)-5-(2-fluorophenyl)-6-(3-fluoropyridin-4-yl)-1,2,4-triazin-3-amine]
- Human A2B Receptor pKi (human A2B receptor [1]): 7.58
- Human A2A Receptor pKi (human A2A receptor): 6.00

Compound: CCc1n[nH]c(Nc2nnc(-c3ccncc3F)c(-c3ccccc3F)n2)n1 [Example 18, N-(3-ethyl-1H-1,2,4-triazol-5-yl)-5-(2-fluorophenyl)-6-(3-fluoro-4-pyridyl)-1,2,4-triazin-3-amine]
- Human A2B Receptor pKi (human A2B receptor [1]): 6.68
- Human A1 Receptor pKi (human A1 receptor): 5.00

Compound: Cc1nsc(Nc2nnc(-c3ccncc3F)c(-c3ccccc3F)n2)n1 [Example 13, N-(5-(2-fluorophenyl)-6-(3-fluoropyridin-4-yl)-1,2,4-triazin-3-yl)-3-methyl-1,2,4-thiadiazol-5-amine]
- Human A2B Receptor pKi (human A2B receptor [1]): 5.98
- IC50 (human A2B receptor [1]): 1170 nM
- Human A2A Receptor pKi (human A2A receptor): <4.70

Compound: COc1ccc(NC(=O)Nc2nnc(-c3ccncc3F)c(-c3ccccc3F)n2)cc1 [Example 29, 1-[5-(2-fluorophenyl)-6-(3-fluoro-4-pyridyl)-1,2,4-triazin-3-yl]-3-(4-methoxyphenyl)urea]
- Human A2B Receptor pKi (human A2B receptor [1]): 6.94

Compound: Cc1ccc(Nc2nnc(-c3ccncc3F)c(-c3ccccc3F)n2)cn1 [Example 21, 5-(2-fluorophenyl)-6-(3-fluoro-4-pyridyl)-N-(6-methyl-3-pyridyl)-1,2,4-triazin-3-amine]
- Human A2B Receptor pKi (human A2B receptor [1]): 7.81
- Human A2A Receptor pKi (human A2A receptor): 6
- IC50 (human A2B receptor [3]): 66.1 nM

Compound: OCc1ccc(Nc2nnc(-c3ccncc3F)c(-c3ccccc3F)n2)cc1F [Example 37, (2-fluoro-4-{[5-(2-fluorophenyl)-6-(3-fluoropyridin-4-yl)-1,2,4-triazin-3-yl]amino}phenyl)methanol]
- Human A2B Receptor pKi (human A2B receptor [1]): 7.84
- Human A2A Receptor pKi (human A2A receptor): 6.1

Compound: Fc1cnccc1-c1nnc(Nc2nccs2)nc1-c1cccnc1 [Example 3, N-(6-(3-fluoropyridin-4-yl)-5-(pyridin-3-yl)-1,2,4-triazin-3-yl)thiazol-2-amine]
- Human A2B Receptor pKi (human A2B receptor [1]): 5.95
- IC50 (human A2B receptor [1]): 1250 nM
- Human A2A Receptor pKi (human A2A receptor): <4.70
- IC50 [2]: 2000 nM
- IC50 [2, 4]: 2000 nM

Compound: Fc1ccccc1-c1nc(Nc2nc(Cl)cs2)nnc1-c1ccnc(C(F)(F)F)c1 [Example 10, 4-chloro-N-(5-(2-fluorophenyl)-6-(2-(trifluoromethyl)pyridin-4-yl)-1,2,4-triazin-3-yl)thiazol-2-amine]
- Human A2B Receptor pKi (human A2B receptor [1]): 6.02
- IC50 (human A2B receptor [1]): 1070 nM
- Human A2A Receptor pKi (human A2A receptor): <4.70

Compound: CNC(=O)Nc1nnc(-c2ccncc2F)c(-c2cccnc2)n1 [Example 7, 1-(6-(3-fluoropyridin-4-yl)-5-(pyridin-3-yl)-1,2,4-triazin-3-yl)-3-methylurea]
- Human A2B Receptor pKi (human A2B receptor [1]): 5.25
- IC50 (human A2B receptor [1]): 6320 nM
- Human A2A Receptor pKi (human A2A receptor): <4.70
- IC50 [2]: 6920 nM
- IC50 [2, 4]: 6920 nM

From patent US12391670B2, “Functionalized aminotriazines” (LEADXPRO AG, priority 2018, dated 2025)
